{
  "source": "patent US5068332A",
  "about": "“Alkylidene analogs of 1'-aminospiro[isoquinoline-4(1H),3'-pyrrolidine]-1,2',3,5'(2H)-tetrones useful as aldose reductase inhibitors” (American Home Products Corporation, priority 1990, dated 1991)",
  "key": {"aldose reductase": {"biological_target": "T1, aldose reductase (Bos taurus, UniProt P16116)", "T1 construct": "preparation of the enxyme from bovine lens; from tissue; host or cells: bovine lens", "assay": "aldose reductase inhibition in vitro (modified Hayman and Kinoshita procedure, enzyme from bovine lens)", "format": "biochemical", "details": "10^-5 M", "method": "(§1) (c) The polyol determination was performed by a modification of the procedure of M. Kraml and L. Cosyns, Clin. Biochem., 2, 373 (1969). Only two minor reagent changes were made: (a) the rinsing mixture was an aqueous 5% (w/v) trichloroacetic acid solution and (b) the stock solution was prepared by dissolving 25 mg of dulcitol in 100 mL of an aqueous trichloroacetic acid solution. [N.B.: For each experiment the average value found in the tissue from rats fed the glucose diet was substracted from the individual values found in the corresponding tissue in galactose-fed rats to obtain the amount of polyol accumulated.] The aldose reductase inhibiting effects of the compounds of formula (I) were also tested by employing an in vitro testing procedure similar to that described by S. Hayman and J.H. Kinoshita, J. Biol. Chem., 240, 877 (1965). In the present case the procedure of Hayman and Kinoshita was modified in that the final chromatography step was omitted in the preparation of the enxyme from bovine lens."}, "dulcitol accumulation": {"test_system": "dulcitol accumulation", "assay": "lowering of galactitol (dulcitol) accumulation in tissues of galactosemic rats in vivo", "design": "species or system rat (male, Sprague-Dawley)", "details": "in diet, 4 days; for % Lowering Galactitol Accumulation In Vivo, % (D): diaphragm; for % Lowering Galactitol Accumulation In Vivo, % (L): lens", "excerpt": "The aldose reductase inhibiting property of the compounds of this invention and the utilization of the compounds in preventing, diminishing and alleviating diabetic complications are demonstrable in experiments using galactosemic rats, see Dvornik et al., Science, 182, 1146 (1973). Such experiments are exemplified hereinbelow after the listing of the following general comments pertaining to these experiments:\n(a) Four or more groups of six male rats, 50-70 g, Sprague-Dawley strain, were used. The first group, the control group, was fed a mixture of laboratory chow (rodent Laboratory Chow, Purina) and glucose at 20% (w/w %) concentration. An untreated galactosemic group was fed a similar diet in which galactose was substituted for glucose. The third group was fed a diet prepared by mixing a given amount of the test compound with the galactose containing diet. The concentration of galactose in the diet of the treated groups was the same as that for the untreated galactosemic group.\n(b) After four days, the animals were killed by euthanization. Both the lens and sciatic nerve were removed, weighed and stored frozen for polyol determination.\nas §1\nThe figures under L, N, and D represent the percentage decrease of dulcitol accumulation in the tissues of the lens, sciatic nerve, and diaphragm, respectively, for treated rats as compared to untreated rats."}},
  "data": [
    {"smiles": "O=C1c2ccccc2C2(CC(=O)N(N=C3CCCC3)C2=O)C(=O)N1Cc1ccc(Br)cc1F", "note": "(stereo not shown) [2-[(4-bromo-2-fluorophenyl)methyl]-1'-(cyclopentylideneamino)spiro[isoquinoline-4(1H),3'-pyrrolidine]-1,2',3,5'(2H)-tetrone]", "values": [
      {"measurement": "inhibition at 10 µM", "setting": "aldose reductase", "value": 0, "unit": "%"},
      {"measurement": "% Lowering Galactitol Accumulation In Vivo, % (D)", "setting": "dulcitol accumulation; 48 mg/kg/day", "value": 95, "unit": "%"},
      {"measurement": "% Lowering Galactitol Accumulation In Vivo, % (L)", "setting": "dulcitol accumulation; 48 mg/kg/day", "value": 76, "unit": "%"}
    ]},
    {"smiles": "CCC(CC)=NN1C(=O)CC2(C(=O)N(Cc3ccc(Br)cc3F)C(=O)c3ccccc32)C1=O", "note": "(stereo not shown) [2-[(4-bromo-2-fluorophenyl)methyl]-1'-[(1-ethylpropylidene)amino]spiro[isoquinoline-4(1H),3'-pyrrolidine]-1,2',3,5'(2H)-tetrone]", "values": [
      {"measurement": "inhibition at 10 µM", "setting": "aldose reductase", "value": 0, "unit": "%"},
      {"measurement": "% Lowering Galactitol Accumulation In Vivo, % (D)", "setting": "dulcitol accumulation; 51 mg/kg/day", "value": 93, "unit": "%"},
      {"measurement": "% Lowering Galactitol Accumulation In Vivo, % (L)", "setting": "dulcitol accumulation; 51 mg/kg/day", "value": 71, "unit": "%"}
    ]},
    {"smiles": "CC(C)=NN1C(=O)CC2(C(=O)N(Cc3ccc(Br)cc3F)C(=O)c3ccccc32)C1=O", "note": "(stereo not shown) [2-[(4-bromo-2-fluorophenyl)methyl]-1'-[(1-methylethylidene)amino]spiro[isoquinoline-4(1H),3'-pyrrolidine]-1,2',3,5'(2H)-tetrone]", "values": [
      {"measurement": "inhibition at 10 µM", "setting": "aldose reductase", "value": 8, "unit": "%"},
      {"measurement": "% Lowering Galactitol Accumulation In Vivo, % (D)", "setting": "dulcitol accumulation; 0.9 mg/kg/day", "value": 66, "unit": "%"},
      {"measurement": "% Lowering Galactitol Accumulation In Vivo, % (D)", "setting": "dulcitol accumulation; 10.8 mg/kg/day", "value": 86, "unit": "%"},
      {"measurement": "% Lowering Galactitol Accumulation In Vivo, % (D)", "setting": "dulcitol accumulation; 56 mg/kg/day", "value": 95, "unit": "%"},
      {"measurement": "% Lowering Galactitol Accumulation In Vivo, % (L)", "setting": "dulcitol accumulation; 10.8 mg/kg/day", "value": 30, "unit": "%"},
      {"measurement": "% Lowering Galactitol Accumulation In Vivo, % (L)", "setting": "dulcitol accumulation; 56 mg/kg/day", "value": 53, "unit": "%"}
    ]},
    {"smiles": "O=C1c2ccccc2C2(CC(=O)N(N=C3CCOCC3)C2=O)C(=O)N1Cc1ccc(Br)cc1F", "note": "(stereo not shown) [2-[(4-bromo-2-fluorophenyl)methyl]-1'-[(tetrahydro-4H-pyran-4-ylidene)amino]spiro[isoquinoline-4(1H),3'-pyrrolidine]-1,2',3,5'(2H)-tetrone]", "values": [
      {"measurement": "inhibition at 10 µM", "setting": "aldose reductase", "value": 36, "unit": "%"},
      {"measurement": "% Lowering Galactitol Accumulation In Vivo, % (D)", "setting": "dulcitol accumulation; 56 mg/kg/day", "value": 89, "unit": "%"},
      {"measurement": "% Lowering Galactitol Accumulation In Vivo, % (L)", "setting": "dulcitol accumulation; 56 mg/kg/day", "value": 44, "unit": "%"}
    ]},
    {"smiles": "CC(C)=NN1C(=O)CC2(C(=O)N(Cc3ccc(Br)cc3F)C(=O)c3ccc(F)cc32)C1=O", "note": "(stereo not shown) [2-[(4-bromo-2-fluorophenyl)methyl]-6-fluoro-1'-[(1-methylethylidene)amino]spiro[isoquinoline-4(1H),3'-pyrrolidine]-1,2',3,5'(2H)-tetrone]", "values": [
      {"measurement": "inhibition at 10 µM", "setting": "aldose reductase", "value": 5, "unit": "%"},
      {"measurement": "% Lowering Galactitol Accumulation In Vivo, % (D)", "setting": "dulcitol accumulation; 1.1 mg/kg/day", "value": 85, "unit": "%"},
      {"measurement": "% Lowering Galactitol Accumulation In Vivo, % (D)", "setting": "dulcitol accumulation; 27 mg/kg/day", "value": 97, "unit": "%"},
      {"measurement": "% Lowering Galactitol Accumulation In Vivo, % (L)", "setting": "dulcitol accumulation; 27 mg/kg/day", "value": 58, "unit": "%"}
    ]}
  ]
}
